Results taken from the supplement of paper PMC5908809.

Columns and labels:
[1] = system: normal NK cells expanded with K562-aAPC; experiment: drug sensitivity score (DSS) (DSS units); higher = more sensitive; extreme values may be limits of the assay; details: 72 h; IL-2 2.5 ng/mL
Method: (§1)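 Drug sensitivity and resistance testing on K562-aAPC-expanded normal NK cells: 5 concentrations (10-fold steps over a 10,000-fold range), 72 h at 37 °C, viability by CellTiter-Glo normalised to DMSO and benzethonium chloride controls; DSS from the fitted curve.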

[2] = system: NK-92 (IL-2 2.5 ng/mL); experiment: percent inhibition of viability; higher = more inhibition; details: 72 h
[3] = system: KHYG-1 (IL-2 2.5 ng/mL); experiment: as above; details: 72 h
[4] = system: normal primary NK cells, pool 3 (3 donors) (IL-2 2.5 ng/mL); experiment: as above; details: 72 h
[5] = system: NKL (IL-2 2.5 ng/mL); experiment: as above; details: 72 h
[6] = system: IMC-1 (IL-2 20 ng/mL); experiment: as above; details: 72 h
[7] = system: normal primary NK cells, pool 2 (3 donors) (IL-2 2.5 ng/mL); experiment: as above; details: 72 h
[8] = system: normal primary NK cells, pool 1 (3 donors), resting (IL-2 0 ng/mL); experiment: as above; details: 72 h
[9] = system: normal primary NK cells, pool 1 (3 donors) (IL-2 2.5 ng/mL); experiment: as above; details: 72 h
[10] = system: DERL-7 (IL-2 2.5 ng/mL); experiment: as above; details: 72 h
[11] = system: SNK-6 (IL-2 2.5 ng/mL); experiment: as above; details: 72 h
[12] = system: YT (IL-2 2.5 ng/mL); experiment: as above; details: 72 h
[13] = system: NK-YS (IL-2 2.5 ng/mL); experiment: as above; details: 72 h
[14] = system: KAI3 (IL-2 2.5 ng/mL); experiment: as above; details: 72 h
[15] = system: NK-92 (IL-2 2.5 ng/mL); experiment: drug sensitivity score (DSS) (DSS units); higher = more sensitive; extreme values may be limits of the assay; details: 72 h
[16] = system: KHYG-1 (IL-2 2.5 ng/mL); experiment: as above; details: 72 h
[17] = system: normal primary NK cells, pool 3 (3 donors) (IL-2 2.5 ng/mL); experiment: as above; details: 72 h
[18] = system: NKL (IL-2 2.5 ng/mL); experiment: as above; details: 72 h
[19] = system: IMC-1 (IL-2 20 ng/mL); experiment: as above; details: 72 h
[20] = system: normal primary NK cells, pool 2 (3 donors) (IL-2 2.5 ng/mL); experiment: as above; details: 72 h
[21] = system: normal primary NK cells, pool 1 (3 donors), resting (IL-2 0 ng/mL); experiment: as above; details: 72 h
[22] = system: normal primary NK cells, pool 1 (3 donors) (IL-2 2.5 ng/mL); experiment: as above; details: 72 h
[23] = system: DERL-7 (IL-2 2.5 ng/mL); experiment: as above; details: 72 h
[24] = system: SNK-6 (IL-2 2.5 ng/mL); experiment: as above; details: 72 h
[25] = system: YT (IL-2 2.5 ng/mL); experiment: as above; details: 72 h
[26] = system: NK-YS (IL-2 2.5 ng/mL); experiment: as above; details: 72 h
[27] = system: KAI3 (IL-2 2.5 ng/mL); experiment: as above; details: 72 h
[28] = system: normal NK cells expanded with K562-aAPC; experiment: percent inhibition of viability; higher = more inhibition; details: 72 h, IL-2 2.5 ng/mL
Method: as §1

CNC(=O)c1cccc(-c2ccc3c(N4CCOC[C@@H]4C)nc(N4CCOC[C@@H]4C)nc3n2)c1 [AZD2014] (max concentration tested 10000 nM)
drug sensitivity score [1]: 10.8 | percent inhibition of viability ([2]; 1 nM): 4.44% | percent inhibition of viability ([2]; 10 nM): -1.39% | percent inhibition of viability ([2]; 100 nM): 29.1% | percent inhibition of viability ([2]; 1000 nM): 57.6% | percent inhibition of viability ([2]; 10000 nM): 86.6% | percent inhibition of viability ([3]; 1 nM): 8.26% | percent inhibition of viability ([3]; 10 nM): 7.2% | percent inhibition of viability ([3]; 100 nM): 12.9% | percent inhibition of viability ([3]; 1000 nM): 48.3% | percent inhibition of viability ([3]; 10000 nM): 87.9% | percent inhibition of viability ([4]; 1 nM): 0.74% | percent inhibition of viability ([4]; 10 nM): 5.96% | percent inhibition of viability ([4]; 100 nM): 9.04% | percent inhibition of viability ([4]; 1000 nM): 27.7% | percent inhibition of viability ([4]; 10000 nM): 27.3% | percent inhibition of viability ([5]; 1 nM): 8.6% | percent inhibition of viability ([5]; 10 nM): 17.6% | percent inhibition of viability ([5]; 100 nM): 50.9% | percent inhibition of viability ([5]; 1000 nM): 66.7% | percent inhibition of viability ([5]; 10000 nM): 73% | percent inhibition of viability ([6]; 1 nM): -8.07% | percent inhibition of viability ([6]; 10 nM): -10.1% | percent inhibition of viability ([6]; 100 nM): -19.9% | percent inhibition of viability ([6]; 1000 nM): -44.5% | percent inhibition of viability ([6]; 10000 nM): 8.41% | percent inhibition of viability ([7]; 1 nM): -6.11% | percent inhibition of viability ([7]; 10 nM): 7.01% | percent inhibition of viability ([7]; 100 nM): 7.49% | percent inhibition of viability ([7]; 1000 nM): 28.2% | percent inhibition of viability ([7]; 10000 nM): 29.1% | percent inhibition of viability ([8]; 1 nM): -7.02% | percent inhibition of viability ([8]; 10 nM): 8.25% | percent inhibition of viability ([8]; 100 nM): 24.4% | percent inhibition of viability ([8]; 1000 nM): 20.1% | percent inhibition of viability ([8]; 10000 nM): 45.9% | percent inhibition of viability ([9]; 1 nM): 5.65% | percent inhibition of viability ([9]; 10 nM): 6.16% | percent inhibition of viability ([9]; 100 nM): 19.9% | percent inhibition of viability ([9]; 1000 nM): 34.6% | percent inhibition of viability ([9]; 10000 nM): 35.5% | percent inhibition of viability ([10]; 1 nM): -2.59% | percent inhibition of viability ([10]; 10 nM): 6.55% | percent inhibition of viability ([10]; 100 nM): 37.5% | percent inhibition of viability ([10]; 1000 nM): 74.8% | percent inhibition of viability ([10]; 10000 nM): 87.2% | percent inhibition of viability ([11]; 1 nM): 5.51% | percent inhibition of viability ([11]; 10 nM): 16.6% | percent inhibition of viability ([11]; 100 nM): 22.9% | percent inhibition of viability ([11]; 1000 nM): 45% | percent inhibition of viability ([11]; 10000 nM): 60.5% | percent inhibition of viability ([12]; 1 nM): 10.9% | percent inhibition of viability ([12]; 10 nM): 6.65% | percent inhibition of viability ([12]; 100 nM): 18.3% | percent inhibition of viability ([12]; 1000 nM): 60.6% | percent inhibition of viability ([12]; 10000 nM): 78.2% | percent inhibition of viability ([13]; 1 nM): 7.61% | percent inhibition of viability ([13]; 10 nM): 7.66% | percent inhibition of viability ([13]; 100 nM): 23% | percent inhibition of viability ([13]; 1000 nM): 61.5% | percent inhibition of viability ([13]; 10000 nM): 81.5% | percent inhibition of viability ([14]; 1 nM): 19.5% | percent inhibition of viability ([14]; 10 nM): 24.3% | percent inhibition of viability ([14]; 100 nM): 46.2% | percent inhibition of viability ([14]; 1000 nM): 65.3% | percent inhibition of viability ([14]; 10000 nM): 73.2% | drug sensitivity score [15]: 14.5 | drug sensitivity score [16]: 11.2 | drug sensitivity score [17]: 5.08 | drug sensitivity score [18]: 20.4 | drug sensitivity score [19]: 0 | drug sensitivity score [20]: 5.3 | drug sensitivity score [21]: 9.03 | drug sensitivity score [22]: 8.12 | drug sensitivity score [23]: 18.6 | drug sensitivity score [24]: 12.5 | drug sensitivity score [25]: 13.5 | drug sensitivity score [26]: 14.4 | drug sensitivity score [27]: 21 | percent inhibition of viability ([28]; 1 nM): 1.08% | percent inhibition of viability ([28]; 10 nM): 8.53% | percent inhibition of viability ([28]; 100 nM): 26.5% | percent inhibition of viability ([28]; 1000 nM): 39.1% | percent inhibition of viability ([28]; 10000 nM): 53.6%

C[C@@]1(C(=O)Nc2ccc(F)nc2)CCCN1c1nc(Nc2cc(C3CC3)n[nH]2)c2cccn2n1 (max concentration tested 10000 nM)
drug sensitivity score [1]: 7.77 | percent inhibition of viability ([2]; 1 nM): 1.84% | percent inhibition of viability ([2]; 10 nM): 11% | percent inhibition of viability ([2]; 100 nM): 7.85% | percent inhibition of viability ([2]; 1000 nM): 33.8% | percent inhibition of viability ([2]; 10000 nM): 57.6% | percent inhibition of viability ([3]; 1 nM): -3.05% | percent inhibition of viability ([3]; 10 nM): -5.44% | percent inhibition of viability ([3]; 100 nM): 1.8% | percent inhibition of viability ([3]; 1000 nM): 30.1% | percent inhibition of viability ([3]; 10000 nM): 70.8% | percent inhibition of viability ([4]; 1 nM): -3.23% | percent inhibition of viability ([4]; 10 nM): -1.9% | percent inhibition of viability ([4]; 100 nM): 0.53% | percent inhibition of viability ([4]; 1000 nM): 7.47% | percent inhibition of viability ([4]; 10000 nM): -2.1% | percent inhibition of viability ([5]; 1 nM): -16.6% | percent inhibition of viability ([5]; 10 nM): -4.3% | percent inhibition of viability ([5]; 100 nM): -14.1% | percent inhibition of viability ([5]; 1000 nM): 1.87% | percent inhibition of viability ([5]; 10000 nM): -5.96% | percent inhibition of viability ([6]; 1 nM): 1.89% | percent inhibition of viability ([6]; 10 nM): -6.3% | percent inhibition of viability ([6]; 100 nM): 0.07% | percent inhibition of viability ([6]; 1000 nM): 3.22% | percent inhibition of viability ([6]; 10000 nM): 76.3% | percent inhibition of viability ([7]; 1 nM): -2.95% | percent inhibition of viability ([7]; 10 nM): -4.83% | percent inhibition of viability ([7]; 100 nM): -5.48% | percent inhibition of viability ([7]; 1000 nM): -1.42% | percent inhibition of viability ([7]; 10000 nM): 10.7% | percent inhibition of viability ([8]; 1 nM): -9% | percent inhibition of viability ([8]; 10 nM): -4.43% | percent inhibition of viability ([8]; 100 nM): 15.4% | percent inhibition of viability ([8]; 1000 nM): -2.47% | percent inhibition of viability ([8]; 10000 nM): 51.6% | percent inhibition of viability ([9]; 1 nM): -6.95% | percent inhibition of viability ([9]; 10 nM): -10% | percent inhibition of viability ([9]; 100 nM): 3.68% | percent inhibition of viability ([9]; 1000 nM): 2.67% | percent inhibition of viability ([9]; 10000 nM): 12.4% | percent inhibition of viability ([10]; 1 nM): -1.6% | percent inhibition of viability ([10]; 10 nM): 5.82% | percent inhibition of viability ([10]; 100 nM): 2.68% | percent inhibition of viability ([10]; 1000 nM): 74.3% | percent inhibition of viability ([10]; 10000 nM): 60.1% | percent inhibition of viability ([11]; 1 nM): 2.3% | percent inhibition of viability ([11]; 10 nM): -11.9% | percent inhibition of viability ([11]; 100 nM): -15.8% | percent inhibition of viability ([11]; 1000 nM): 57.8% | percent inhibition of viability ([11]; 10000 nM): 74.8% | percent inhibition of viability ([12]; 1 nM): 3.08% | percent inhibition of viability ([12]; 10 nM): 1.72% | percent inhibition of viability ([12]; 100 nM): 7.96% | percent inhibition of viability ([12]; 1000 nM): 25% | percent inhibition of viability ([12]; 10000 nM): 51.8% | percent inhibition of viability ([13]; 1 nM): -3.69% | percent inhibition of viability ([13]; 10 nM): -4.66% | percent inhibition of viability ([13]; 100 nM): 4.73% | percent inhibition of viability ([13]; 1000 nM): 65.5% | percent inhibition of viability ([13]; 10000 nM): 77.1% | percent inhibition of viability ([14]; 1 nM): -1.42% | percent inhibition of viability ([14]; 10 nM): -2.58% | percent inhibition of viability ([14]; 100 nM): 4.51% | percent inhibition of viability ([14]; 1000 nM): 22.4% | percent inhibition of viability ([14]; 10000 nM): 41.7% | drug sensitivity score [15]: 7.43 | drug sensitivity score [16]: 7.7 | drug sensitivity score [17]: 0 | drug sensitivity score [18]: 0 | drug sensitivity score [19]: 4.66 | drug sensitivity score [20]: 0 | drug sensitivity score [21]: 2.52 | drug sensitivity score [22]: 0.16 | drug sensitivity score [23]: 13.9 | drug sensitivity score [24]: 10.8 | drug sensitivity score [25]: 5.62 | drug sensitivity score [26]: 12.7 | drug sensitivity score [27]: 4.58 | percent inhibition of viability ([28]; 1 nM): -9.12% | percent inhibition of viability ([28]; 10 nM): -3.4% | percent inhibition of viability ([28]; 100 nM): -6.53% | percent inhibition of viability ([28]; 1000 nM): 45.5% | percent inhibition of viability ([28]; 10000 nM): 42.2%
